# According to US12042481B2, “Use of (1R,5S)-(+)-1-(naphthalen-2-yl)-3-azabicyclo[3.1.0]hexane in the treatment of conditions affected by monoamine neurotransmitters” (priority 2011, dated 2024):
# Entries after “also recorded” stand apart in the source; their conditions may differ.
# Legend:
# [1] = biological target: T1, recombinant human NE transporter (Homo sapiens, UniProt P23975); assay: Inhibition of [3H]norepinephrine uptake in MDCK cells transfected with the NE uptake transporter; assay type: cell-based
# T1 construct: host or cells: MDCK
# Procedure: The ability of (1R,5S)-(+)-1-(naphthalen-2-yl)-3-azabicyclo[3.1.0]hexane for inhibiting transport of norepinephrine (NE) and/or dopamine (DA) and/or serotonin (5-HT) was evaluated using cell lines (such as the HEK 293 cell line) that stably express recombinant human NE, DA, and 5-HT transporters, respectively. Techniques for stably transfecting mammalian cell lines with neurotransmitter transporters and measuring the effects of drugs on amine uptake have been described in the literature (e.g., Eshleman A J, J Pharmacol Exp Ther 289:877-885, 1999) and are well known to those skilled in the art
# Monoamine uptake was determined in MDCK, CHO-K1, and HEK-293 cell lines respectively transfected with NE, DA, and 5-HT uptake transporters by MDS Pharma Services (Taipei, Taiwan 112, R. O. C.). The cells were incubated in 5 mM Tris-HCl, and 7.5 mM HEPES buffer, pH 7.1, containing 120 mM NaCl, 5.4 mM KCl, 1.2 mM CaCl2, 1.2 mM MgSO4, 5 mM D-glucose, and 1 mM Ascorbic Acid. The cellular homogenates were incubated with radioligands and various concentrations of drugs for 10 minutes at 25° C. The [^3H]-radioligands incorporated into the cells were determined according to published methods using liquid scintillation counting (Perovic and Müller 1995; Eshleman et al., 1999). […]
# [2] = system: male CD-1 (Crl.) derived mice; assay: Mouse spontaneous locomotor activity; assay type: in vivo
# Procedure: For the locomotor activity determination, male CD-1 (Crl.) derived mice were orally administered (1R,5S)-(+)-1-(naphthalen-2-yl)-3-azabicyclo[3.1.0]hexane as described in Example IV. Locomotor activity for mice in groups of 10 was assessed by placing mice individually into custom built chambers in a quiet isolated 22° C. room (conducted by MDS Pharma Services, Taipei, Taiwan 112, R. O. C.). At 15-minute intervals over 2 hours post-dosing, total travel distances (in cm) for individual animals were recorded using the Etho Vision Pro System (Noldus, USA).
# T1 sequence (P23975 whole entry): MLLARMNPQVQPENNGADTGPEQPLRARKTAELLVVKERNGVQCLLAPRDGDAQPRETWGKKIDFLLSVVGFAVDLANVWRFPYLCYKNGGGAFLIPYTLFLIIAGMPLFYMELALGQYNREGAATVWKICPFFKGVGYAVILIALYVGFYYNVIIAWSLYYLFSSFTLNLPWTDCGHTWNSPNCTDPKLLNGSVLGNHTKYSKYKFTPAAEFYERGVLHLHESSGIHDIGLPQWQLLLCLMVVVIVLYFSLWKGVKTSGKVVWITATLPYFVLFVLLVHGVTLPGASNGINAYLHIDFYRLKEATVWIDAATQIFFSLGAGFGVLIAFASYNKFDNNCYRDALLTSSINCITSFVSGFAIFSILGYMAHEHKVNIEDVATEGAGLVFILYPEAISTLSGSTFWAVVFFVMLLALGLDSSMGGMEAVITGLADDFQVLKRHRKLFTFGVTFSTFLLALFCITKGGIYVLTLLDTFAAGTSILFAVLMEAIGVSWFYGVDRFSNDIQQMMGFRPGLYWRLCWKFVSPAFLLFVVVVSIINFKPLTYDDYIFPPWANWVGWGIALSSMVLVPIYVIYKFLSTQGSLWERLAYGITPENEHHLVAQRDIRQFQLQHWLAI
smiles,measurement,setting,value
"c1ccc2cc([C@]34CNC[C@H]3C4)ccc2c1 [(1R,5S)-(+)-1-(naphthalen-2-yl)-3-azabicyclo[3.1.0]hexane]",IC50,[1],6 nM
same,locomotor activity (FIG. 5),"[2]; 20, 40 mg/kg p.o., 15 minute epochs, p<0.05 versus vehicle",decreased locomotor activity at several time points
same,spontaneous locomotor activity,"[2]; oral, distance traveled at 15-minute intervals over 2 hours",did not significantly increase; also recorded: significantly decrease locomotor activity at several time points
